Measurements published in US20210238170A1, “5,5-Difluoro- and 5-Fluoro-5-Methyl-C-Glycoside Derivatives Useful As Dual SGLT1 / SGLT2 Modulators” (Janssen Pharmaceutica NV, priority 2018, published 2021).
Read-outs that look alike come from different tables or passages of the source.

Assays:
SD rats = experiment: Oral Glucose Tolerance Test (OGTT) in SD rats: blood glucose excursion AUC and urine glucose excretion; format: in vivo, rat; details: mean ± SE; for response vs control in vivo at 1 mg/kg / response vs control in vivo at 10 mg/kg: Rattus norvegicus, 2 h, n = 8, read-out: 120-min Blood Glucose AUC vs Vehicle (%); for Urine Glucose Excretion (g/0-4 hr): n = 8
Procedure: Biological Example 2: In Vivo Assay
Oral Glucose Tolerance Test (OGTT) in SD Rats
Overnight fasted SD rats were allocated into vehicle or test compound treatment groups based on their body weights (n=8 in each group). The animals were orally dosed with vehicle or test compound at a volume of 10 ml/kg at 30-minute prior to OGTT. The animals then received an OGTT challenge with 2 g/kg (50% glucose solution at the volume of 4 ml/kg, orally). The animals were immediately transferred into metabolic cages after they were dosed with the glucose. Blood glucose levels were measured at 0 (pre-OGTT), 30, 60, and 120 minutes after OGTT using one-touch Glucometer. Blood glucose excursion AUC (area under the curve of blood glucose) was determined from the blood glucose levels measured at the timepoints.
Table 9 below, presents the measured efficacy of the test compound(s), expressed as the percentage (%) of blood glucose AUC vs that in vehicle group. The data is interpreted such that, the smaller the percentage of blood glucose AUC of compound vs vehicle, the greater the efficacy of the test compound. Urine volume and urine glucose concentrations (tested by using Olympus system with Genzyme diagnostics assay reagent) were measured to determine the urine glucose excretion (UGE) in 4-hr period after OGTT (0-4 hours).

human SGLT1 = target: T1, human SGLT1 (Homo sapiens, UniProt P13866); experiment: SGLT1 in vitro assay: Na-dependent 14C-AMG uptake in CHO-K1 cells stably expressing human SGLT1; format: cell-based; details: for inhibition at 0.3 µM: read-out: SGLT1 % Inh @ 0.3 μM
T1 construct: expressed in transfected cells
T1 sequence (P13866 1-664): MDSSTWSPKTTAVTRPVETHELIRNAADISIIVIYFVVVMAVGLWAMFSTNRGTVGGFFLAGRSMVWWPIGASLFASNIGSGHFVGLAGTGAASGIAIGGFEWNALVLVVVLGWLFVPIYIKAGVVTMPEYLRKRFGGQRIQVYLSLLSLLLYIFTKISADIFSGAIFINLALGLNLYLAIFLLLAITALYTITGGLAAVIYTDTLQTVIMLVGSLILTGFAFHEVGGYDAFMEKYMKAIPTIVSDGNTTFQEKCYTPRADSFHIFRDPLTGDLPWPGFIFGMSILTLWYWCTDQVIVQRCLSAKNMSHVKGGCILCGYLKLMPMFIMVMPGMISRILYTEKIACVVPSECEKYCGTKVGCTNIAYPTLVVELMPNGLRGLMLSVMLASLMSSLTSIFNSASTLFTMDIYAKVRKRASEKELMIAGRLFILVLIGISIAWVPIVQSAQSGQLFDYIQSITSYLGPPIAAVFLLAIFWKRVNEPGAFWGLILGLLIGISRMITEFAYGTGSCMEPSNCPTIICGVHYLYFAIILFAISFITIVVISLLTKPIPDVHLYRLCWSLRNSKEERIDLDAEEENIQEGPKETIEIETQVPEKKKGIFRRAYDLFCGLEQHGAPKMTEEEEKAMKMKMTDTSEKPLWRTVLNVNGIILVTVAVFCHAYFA
Procedure, shortened: (§1)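 Sodium-dependent uptake of 14C-α-methyl-glucopyranoside ([…]) over 2 h at 37°C was counted by scintillation in stable human SGLT2- or SGLT1-CHO-K1 lines pretreated with 10 mM Na-butyrate. Compounds at 0.001–10 μM were preincubated for 10 min in pH 7.4 buffer with 137 mM NaCl; output is %-inhibition or IC50.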

human SGLT2 = target: T2, human SGLT2 (Homo sapiens, UniProt P31639); experiment: SGLT2 in vitro assay: Na-dependent 14C-AMG uptake in CHO-K1 cells stably expressing human SGLT2; format: cell-based; details: for inhibition at 0.3 µM: read-out: SGLT2 % Inh @ 0.3 μM
T2 construct: expressed in transfected cells
T2 sequence (P31639 1-672): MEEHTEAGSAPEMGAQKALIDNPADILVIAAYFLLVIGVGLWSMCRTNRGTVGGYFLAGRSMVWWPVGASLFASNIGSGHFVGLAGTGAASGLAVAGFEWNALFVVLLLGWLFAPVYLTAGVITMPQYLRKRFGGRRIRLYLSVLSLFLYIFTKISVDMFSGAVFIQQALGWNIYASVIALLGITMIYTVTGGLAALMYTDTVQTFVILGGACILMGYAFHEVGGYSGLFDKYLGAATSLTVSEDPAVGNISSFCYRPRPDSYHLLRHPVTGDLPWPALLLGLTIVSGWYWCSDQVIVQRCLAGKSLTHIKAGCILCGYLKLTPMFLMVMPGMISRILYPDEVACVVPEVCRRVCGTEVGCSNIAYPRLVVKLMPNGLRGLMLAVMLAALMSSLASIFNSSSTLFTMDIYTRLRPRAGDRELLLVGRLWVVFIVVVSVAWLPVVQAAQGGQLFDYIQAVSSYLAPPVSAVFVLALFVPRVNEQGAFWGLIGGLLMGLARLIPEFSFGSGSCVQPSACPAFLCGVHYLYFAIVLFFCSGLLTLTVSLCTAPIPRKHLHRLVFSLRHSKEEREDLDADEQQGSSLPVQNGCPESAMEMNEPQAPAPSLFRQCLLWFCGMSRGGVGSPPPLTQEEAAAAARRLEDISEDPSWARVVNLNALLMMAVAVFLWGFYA
Procedure, shortened: as §1

[1] = CHO-K1 cells stably expressing human SGLT1, 14C-AMG uptake, compounds of formula (I) where R0 is fluoro
[2] = CHO-K1 cells stably expressing human SGLT2, 14C-AMG uptake, compounds of formula (I) where R0 is fluoro
[3] = @ 0.3 μM, CHO-K1 cells stably expressing human SGLT1, 14C-AMG uptake
[4] = @ 0.3 μM, CHO-K1 cells stably expressing human SGLT2, 14C-AMG uptake
[5] = 0.3 μM, CHO-K1 cells expressing human SGLT1
[6] = CHO-K1 cells expressing human SGLT1, 14C-AMG uptake
[7] = 0.3 μM, CHO-K1 cells expressing human SGLT2
[8] = CHO-K1 cells expressing human SGLT2, 14C-AMG uptake

| SMILES | IC50 (human SGLT1; [1]) [µM] | IC50 (human SGLT2; [2]) [µM] | inhibition at 0.3 µM (human SGLT1; [3]) [%] | inhibition at 0.3 µM (human SGLT2; [4]) [%] | response vs control in vivo at 1 mg/kg (SD rats; oral dose 1 mg/kg) [%] | response vs control in vivo at 10 mg/kg (SD rats; oral dose 10 mg/kg) [%] | Urine Glucose Excretion (g/0-4 hr) (SD rats; oral dose 1 mg/kg) | Urine Glucose Excretion (g/0-4 hr) (SD rats; oral dose 10 mg/kg) | further results |
| --- | --- | --- | --- | --- | --- | --- | --- | --- | --- |
| CCc1cc(O)c([C@@H]2O[C@H](CO)C(F)(F)[C@H](O)[C@H]2O)cc1Cc1ccc(OC)cc1 [Compound 88, (2S,3R,4R,6R)-2-(4-ethyl-2-hydroxy-5-(4-methoxybenzyl)phenyl)-5,5-difluoro-6-(hydroxymethyl)-tetrahydro-2H-pyran-3,4-diol] | 0.041 | 0.0017 | 77.2 | 88.6 | 65.9 ± 1.8 | 41.6 ± 1.1 | 0.046 ± 0.014 | 0.349 ± 0.023 |  |
| C[C@]1(F)[C@H](O)[C@@H](O)[C@H](c2cc(Cc3ccc4c(c3)OCCO4)c(Cl)cc2O)O[C@@H]1CO [Compound 3, (2S,3R,4R,5S,6R)-2-[4-chloro-5-(2,3-dihydro-1,4-benzodioxin-6-ylmethyl)-2-hydroxy-phenyl]-5-fluoro-6-(hydroxymethyl)-5-methyl-tetrahydropyran-3,4-diol] |  |  |  |  | 91.3 ± 2 | 69.3 ± 1.9 | 0.001 | 0.001 | inhibition at 0.3 µM (human SGLT1; [5]): 45.3%; IC50 (human SGLT1; [6]): 0.269 µM; inhibition at 0.3 µM (human SGLT2; [7]): 89.4%; IC50 (human SGLT2; [8]): 0.0021 µM |
| COc1cc(O)c([C@@H]2O[C@H](CO)[C@@](C)(F)[C@H](O)[C@H]2O)cc1Cc1ccc2c(c1)OCCO2 [Compound 6, (2S,3R,4R,5S,6R)-2-(5-((2,3-dihydrobenzo[b][1,4]dioxin-6-yl)methyl)-2-hydroxy-4-methoxyphenyl)-5-fluoro-6-(hydroxymethyl)-5-methyl-tetrahydro-2H-pyran-3,4-diol] |  |  |  |  | 71.6 ± 0.7 | 55.5 ± 1.7 | 0.000 | 0.047 ± 0.008 | inhibition at 0.3 µM (human SGLT1; [5]): 72.6%; IC50 (human SGLT1; [6]): 0.037 µM; inhibition at 0.3 µM (human SGLT2; [7]): 92.8%; IC50 (human SGLT2; [8]): 0.0043 µM |
| OC[C@H]1O[C@@H](c2cc(Cc3ccc4c(c3)CCO4)c(Cl)c3c2OCC3)[C@H](O)[C@@H](O)C1(F)F [Compound 114] |  |  |  |  |  |  |  |  | SGLT1 % Inh @ 0.3 μM (human SGLT1; [3]): 36.8%; SGLT2 % Inh @ 0.3 μM (human SGLT2; [4]): 80.6% |
| COc1cc(Cl)c(Cc2ccc(OC(F)(F)F)cc2)cc1[C@@H]1O[C@H](CO)C(F)(F)[C@H](O)[C@H]1O [Compound 106] |  |  |  |  |  |  |  |  | SGLT1 % Inh @ 0.3 μM (human SGLT1; [3]): 29.5%; SGLT2 % Inh @ 0.3 μM (human SGLT2; [4]): 92.5% |
| COc1cc(O)c([C@@H]2O[C@H](CO)C(F)(F)[C@H](O)[C@H]2O)cc1Cc1ccc2c(c1)CCO2 [Compound 62, (2S,3R,4R,6R)-2-[5-(2,3-dihydrobenzofuran-5-ylmethyl)-2-hydroxy-4-methoxy-phenyl]-5,5-difluoro-6-(hydroxymethyl)tetrahydropyran-3,4-diol] | 0.708 | 0.0173 | 40.9 | 79.6 |  |  |  |  |  |
| Cc1cc(OC(C)C)c([C@@H]2O[C@H](CO)C(F)(F)[C@H](O)[C@H]2O)cc1Cc1cc2ccccc2s1 [Compound 42] |  |  |  |  |  |  |  |  | SGLT1 % Inh @ 0.3 μM (human SGLT1; [3]): 8.9%; SGLT2 % Inh @ 0.3 μM (human SGLT2; [4]): 74.3% |

Now from value to compound, other results behind:

| IC50 (human SGLT1; [1]) [µM] | IC50 (human SGLT2; [2]) [µM] | inhibition at 0.3 µM (human SGLT1; [3]) [%] | inhibition at 0.3 µM (human SGLT2; [4]) [%] | SMILES | response vs control in vivo at 1 mg/kg (SD rats; oral dose 1 mg/kg) [%] | response vs control in vivo at 10 mg/kg (SD rats; oral dose 10 mg/kg) [%] | Urine Glucose Excretion (g/0-4 hr) (SD rats; oral dose 1 mg/kg) | Urine Glucose Excretion (g/0-4 hr) (SD rats; oral dose 10 mg/kg) | further results |
| --- | --- | --- | --- | --- | --- | --- | --- | --- | --- |
| 0.056 | 0.0038 |  |  | Cc1cc(O)c([C@@H]2O[C@H](CO)C(F)(F)[C@H](O)[C@H]2O)cc1Cc1cc2ccccc2s1 [Compound 25, (2S,3R,4R,6R)-2-(5-(benzo[b]thiophen-2-ylmethyl)-2-hydroxy-4-methylphenyl)-5,5-difluoro-6-(hydroxymethyl)tetrahydro-2H-pyran-3,4-diol] | 67.8 ± 1.7 | 36.5 ± 1.1 | 0.001 | 0.499 ± 0.04 |  |
| 0.074 | 0.0032 | 74.3 | 76.3 | COc1ccc(Cc2cc([C@@H]3O[C@H](CO)C(F)(F)[C@H](O)[C@H]3O)c(O)cc2OC)cc1 [Compound 91, (2S,3R,4R,6R)-5,5-difluoro-2-(2-hydroxy-4-methoxy-5-(4-methoxybenzyl)phenyl)-6-(hydroxymethyl)-tetrahydro-2H-pyran-3,4-diol] | 61.6 ± 3.9 | 41.3 ± 2.3 | 0.026 ± 0.007 | 0.089 ± 0.01 |  |
| 0.025 | 0.0012 | 73.1 | 64.4 | OC[C@H]1O[C@@H](c2cc(Cc3ccc(Cl)cc3)c(Cl)cc2O)[C@H](O)[C@@H](O)C1(F)F [Compound 163, (2S,3R,4R,6R)-2-(4-chloro-5-(4-chlorobenzyl)-2-hydroxyphenyl)-5,5-difluoro-6-(hydroxymethyl)-tetrahydro-2H-pyran-3,4-diol] |  |  |  |  |  |
| 0.112 | 0.0026 | 71.8 | 89.7 | COc1cccc(Cc2cc([C@@H]3O[C@H](CO)C(F)(F)[C@H](O)[C@H]3O)c(O)cc2Cl)c1 [Compound 157] |  |  |  |  |  |
| 0.142 | 0.0026 | 67.6 | 89.2 | CCc1ccc(Cc2cc([C@@H]3O[C@H](CO)C(F)(F)[C@H](O)[C@H]3O)c(O)cc2Cl)cc1 [Compound 127, (2S,3R,4R,6R)-2-{4-chloro-5-[(4-ethylphenyl)methyl]-2-hydroxyphenyl}-5,5-difluoro-6-(hydroxymethyl)oxane-3,4-diol] |  |  |  |  |  |
| 0.093 | 0.0042 | 71.3 |  | OC[C@H]1O[C@@H](c2cc(Cc3cc4ccccc4s3)c(Cl)cc2O)[C@H](O)[C@@H](O)C1(F)F [Compound 27, (2S,3R,4R,6R)-2-[5-(benzothiophen-2-ylmethyl)-4-chloro-2-hydroxy-phenyl]-5,5-difluoro-6-(hydroxymethyl)tetrahydropyran-3,4-diol] |  |  |  |  |  |
